IC50 data for 19 compounds are collected here from ChEMBL document CHEMBL1148658, “New HIV-1 reverse transcriptase inhibitors based on a tricyclic benzothiophene scaffold: synthesis, resolution, and inhibitory activity” (Bioorg Med Chem Lett, 2006).

Where only a bound is given, the exact number is not on record here.

Common to all, as to type: cell-based
The target of assay [1] is Human immunodeficiency virus type 1 reverse transcriptase (Human immunodeficiency virus 1, UniProt Q72547). Briefly: Inhibition of wild type HIV1 reverse transcriptase in 293T cells.
For assay [2], the target named is Human immunodeficiency virus type 1 reverse transcriptase (Human immunodeficiency virus 1, UniProt Q72547, Y181C). Briefly: Inhibition of HIV1 reverse transcriptase Y181C mutant in 293T cells.
For assay [3], the target named is Human immunodeficiency virus type 1 reverse transcriptase (Human immunodeficiency virus 1, UniProt Q72547, K103N). Briefly: Inhibition of HIV1 reverse transcriptase K103N mutant in 293T cells.
Assay [4] deals with Human immunodeficiency virus type 1 reverse transcriptase (Human immunodeficiency virus 1, UniProt Q72547, Y188C). The assay is described as follows: Inhibition of HIV1 reverse transcriptase Y188C mutant in 293T cells.

For `COC(=O)C1=C(N2CCCC2)C2c3ccccc3SC12C(=O)OC` (configuration not stated), the half-maximal inhibitory concentration (IC50) in assay [1] is 1.2 µM; in assay [2], greater than 30 µM; in assay [3] it was greater than 30 µM; in assay [4], greater than 30 µM. Compound `CCOC(=O)C1=C(N2CCCC2)[C@H]2c3ccccc3S[C@@]12C(=O)OCC` registered a half-inhibitory concentration (IC50) in assay [1] greater than 20 µM. Turning to `COC(=O)C1=C(N2CCCC2)[C@H]2c3ccccc3S[C@@]12C(=O)OC`, the IC50 in assay [1] was 0.8 µM. Still for that read-out and setting: the figure for `COC(=O)C1=C(N2CCC[C@@H]2C)[C@H]2c3ccccc3S[C@@]12C(=O)OC` is 2.3 µM; for `COC(=O)C1=C(N2CCC[C@@H]2C)[C@@H]2c3ccccc3S[C@]12C(=O)OC` it is greater than 25 µM; for `COC[C@H]1CCCN1C1=C(C(=O)OC)[C@@]2(C(=O)OC)Sc3ccccc3[C@@H]12` it is greater than 50 µM.

The compound `COC[C@H]1CCCN1C1=C(C(=O)OC)C2(C(=O)OC)Sc3ccccc3C12` (some centres not stated) returned an IC50 in assay [1] of 48 µM. The same measure, in the same setting: the figure for `COC(=O)C1=C(N2CCC2)C2c3ccccc3SC12C(=O)OC` (configuration not stated) is greater than 10 µM. In assay [1], `COC(=O)C1=C(N2CCCCC2)C2c3ccccc3SC12C(=O)OC` (configuration not stated) yielded an IC50 of 8.9 µM. Take `COC(=O)C1=C(N2CC=CC2)C2c3ccccc3SC12C(=O)OC` (configuration not stated): half-maximal inhibition in assay [1] (IC50) required 5.1 µM. This IC50 is about 1.7-fold lower than that of the compound before. Still for that read-out and setting: the figure for `COC(=O)C1=C(N2CCCC2)[C@@H]2c3ccccc3S[C@]12C(=O)OC` is greater than 20 µM; for `COC[C@H]1CCCN1C1=C(C(=O)OC)[C@]2(C(=O)OC)Sc3ccccc3[C@H]12` it is 38 µM; for `COC(=O)C1=C(N2CCCCC2)[C@@H]2c3ccccc3S[C@]12C(=O)OC` it is greater than 40 µM.

Compound `COC(=O)C1=C(N2CCCCC2)[C@H]2c3ccccc3S[C@@]12C(=O)OC` came in with a half-inhibitory concentration (IC50) in assay [1] of 7.7 µM. That is a single-digit micromolar value.

Regarding `COC(=O)C1=C(N2CCC[C@H]2C)[C@H]2c3ccccc3S[C@@]12C(=O)OC`, the IC50 in assay [1] came out at 0.5 µM. In turn, `CCOC(=O)C1=C(N2CCCC2)[C@@H]2c3ccccc3S[C@]12C(=O)OCC` yielded an IC50 in assay [1] greater than 20 µM. Turning to `CC(C)(C)OC(=O)C1=C(N2CCCC2)C2c3ccccc3SC12C(=O)OC(C)(C)C` (configuration not stated), in assay [1], the IC50 is greater than 20 µM. Same read-out and setting: the figure for `CCOC(=O)C1=C(N2CCCC2)C2c3ccccc3SC12C(=O)OCC` (configuration not stated) is greater than 20 µM. In the case of `COC(=O)C1=C(N2CCC[C@H]2C)[C@@H]2c3ccccc3S[C@]12C(=O)OC`, the half-maximal inhibitory concentration (IC50) in assay [1] came out at 11 µM.

In general, IC50 refers to the point on the concentration scale where inhibition reaches its midpoint. Higher therefore signals a need for much substance.
